Data set [1] addresses T1, AR protein (Homo sapiens, UniProt P10275).
T1 sequence (P10275 1-920): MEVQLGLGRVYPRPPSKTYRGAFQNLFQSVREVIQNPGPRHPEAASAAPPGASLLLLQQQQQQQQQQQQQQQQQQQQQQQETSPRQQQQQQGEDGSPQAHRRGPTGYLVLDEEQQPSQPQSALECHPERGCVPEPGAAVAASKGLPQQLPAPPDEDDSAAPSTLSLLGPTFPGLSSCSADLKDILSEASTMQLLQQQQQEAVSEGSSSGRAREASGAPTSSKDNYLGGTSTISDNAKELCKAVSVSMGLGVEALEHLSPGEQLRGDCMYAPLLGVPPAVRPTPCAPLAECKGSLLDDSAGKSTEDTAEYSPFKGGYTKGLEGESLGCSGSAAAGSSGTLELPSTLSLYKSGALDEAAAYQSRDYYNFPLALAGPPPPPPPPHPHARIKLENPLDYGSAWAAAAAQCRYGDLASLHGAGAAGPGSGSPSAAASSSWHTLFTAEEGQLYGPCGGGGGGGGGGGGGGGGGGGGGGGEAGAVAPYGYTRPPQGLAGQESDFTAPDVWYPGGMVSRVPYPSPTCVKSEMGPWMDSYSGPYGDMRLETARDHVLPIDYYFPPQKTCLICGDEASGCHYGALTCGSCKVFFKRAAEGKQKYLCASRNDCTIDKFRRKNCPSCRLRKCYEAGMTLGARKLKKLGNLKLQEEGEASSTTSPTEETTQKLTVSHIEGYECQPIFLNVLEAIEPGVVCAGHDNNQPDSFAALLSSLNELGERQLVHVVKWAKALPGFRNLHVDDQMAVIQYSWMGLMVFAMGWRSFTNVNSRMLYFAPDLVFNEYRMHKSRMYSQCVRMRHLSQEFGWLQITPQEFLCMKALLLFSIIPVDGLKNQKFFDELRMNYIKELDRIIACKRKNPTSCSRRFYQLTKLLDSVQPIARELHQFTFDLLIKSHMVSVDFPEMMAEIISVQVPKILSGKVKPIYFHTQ
The experiment in a line: AR degradation in VCaP cell line. The data set is classed as cell-based.

The test system of data set [2] is AR protein (22Rvl cell line with F876L mutation). The experiment in a line: AR degradation in 22Rv1 cell line. It is filed as cell-based, human. As to conditions: 22Rv1, 24 h.
Data set [3] concerns the target T1, AR protein. To be noted: single oral administration 20 mg/kg, 6 and 24 h time-points, Western blotting.
For data set [4], the target named is T2, AR T878A mutant protein (Homo sapiens, UniProt P10275, T878A).
T2 sequence (P10275 1-920 T878A): T1 sequence (P10275 1-920) with T878A

Data set [5] has as its target T3, AR double mutations (L702H and T878A) (Homo sapiens, UniProt P10275, L702H/T878A).
T3 sequence (P10275 1-920 L702H/T878A): T1 sequence (P10275 1-920) with L702H, T878A
As to conditions: MDA-PCa-2b, 24 h, Figure 7.

A short description of data set [6]: Tissue distribution studies of ARD-2585 in mice bearing VCaP tumors. The data set is classed as in vivo. As to conditions: male, SCID, mouse, po, 20 mg/kg.
Data set [7] is described as follows: Pharmacokinetics in mice. It is filed as in vivo. To be noted: male, mouse, in vivo.

Changes are numbered by the printed parent chain.

For the compound `CN(c1ccc(C#N)c(Cl)c1)[C@H]1CC[C@H](NC(=O)c2ccc(N3CCN(C4CN(c5ccc6c(c5)C(=O)N(C5CCC(=O)NC5=O)C6=O)C4)CC3)cc2)CC1` (stereo partly drawn) [Compound 43, N-(1R,4R)-4-(((3-Chloro-4-cyanophenyl)(methyl)amino)-cyclohexyl)-4-(4-(1-(2-(2,6-dioxopiperidin-3-yl)-1,3-dioxoisoindolin-5-yl)azetidin-3-yl)piperazin-1-yl)benzamide], the “Dmax, AR degradation in VCaP cell line” value in data set [1] (VCaP cell line, 24 h treatment, Western blotting, listed as ARD-2585) is above 98%. Further, the “reduction of AR protein (mechanism study)” value in data set [1] (VCaP cells, 100 nM, 3 h treatment) is listed as “effectively reduces”. Besides, the “reduction of AR protein level (degradation kinetics)” value in data set [1] (VCaP, 1 h) is “effectively reduce”. Also, the “Dmax, AR degradation in 22Rv1 cell line” value in data set [2] is above 95%. In addition, the “reduction of AR protein level in VCaP tumor tissue” value in data set [3] is given as “effective”. Further, the “Dmax, AR degradation in LNCaP cell line” value in data set [4] (LNCaP cell line (AR T878A), Western blotting, listed as ARD-2585) was above 98%. Also, the “reduction of AR protein (mechanism study)” value in data set [4] (LNCaP cells, 100 nM, 3 h treatment) is “effectively reduces”. Moreover, the “reduction of AR protein level (degradation kinetics)” value in data set [4] (LNCaP, 1 h) is on record as “effectively reduce”. Also, the “concentration as low as which AR protein level is reduced by >80%” value in data set [5] came out at 1 nM. Also, in data set [6] (plasma), the concentration at 6 h stood at 134 ± 98 ng/mL and the concentration at 24 h was found to be 214 ± 78 ng/mL. This compound also returned a concentration at 24 h in data set [6] (prostate) of 109 ± 23 ng/g. Besides, in data set [7] (iv, 2 mg/kg), the distribution volume (Vd) lay within 1.8 to 2.1 L/kg, the clearance lay within 3.33 to 5 mL/min/kg and the half-life is 5.5 to 7.5 h. The exposure AUC(0-t) in data set [7] (po, 3 mg/kg) came out at 8640 ng·h/mL.

The values above are taken from article PMC8855934 (Journal of medicinal chemistry, 2021).
